“Also recorded” adds a separate entry of the source.
Columns and labels:
[1] = tested on: electrically evoked Ca^2+ transients in rat skinned fibers; experiment: Electrically evoked Ca2+ transients (EC coupling) in rat skinned skeletal muscle fibers; format: cell-based; details: field stimulation 1 Hz, 100 nM free Ca2+
Description: To test the potential impact of these compounds on excitation contraction coupling, we measured voltage-induced Ca^2+ transients in rat skeletal muscle fibers. To do this, we again used mechanically skinned fibers. Because the t-system reseals upon mechanical skinning, bathing the preparation in a K^+-based cytoplasmic solution (with a small amount of Na^+) allows the Na^+-K^+ pump to re-establish the normal membrane potential. EC coupling can be initiated by exciting the preparation with field pulses that generate action potentials in the t-system to trigger Ca^2+ release[52]–[54]. Ca^2+ release is tracked by imaging rhod-2 in the cytoplasm via confocal microscopy in line-scan mode, and quantitatively plotted in Fig. 5 (based on recordings such as shown in Supplementary Fig. 7). A major advantage of using skinned fibers is that known concentrations of RyR modulators can be added to the cytoplasm, as they were added in the “leak” experiments. With this approach, we found 1 and 10 μM myricetin reduced Ca^2+ transient peak amplitude by 12% (P = 0.0046) and 48% (P < 0.0001), respectively (Fig. 5 and Supplementary Fig. 7a). In the case of chloroxine, only addition of 100 μM led to a detectable 14% (P < 0.0001) reduction in the Ca^2+ transient peak amplitude (Fig. 5 and Supplementary Fig. 7b). Therefore, both compounds, have impact on Ca^2+ transients that is markedly lower than their effect on the t-tubule readout of RyR1 [Ca^2+] leak (Figs. 4 and 5).
All experimental methods using rats were approved by The Animal Ethics Committee at The University of Queensland. Five month old Wistar rats (UQ Biological Resources, Brisbane) were euthanized by asphyxiation via CO2 exposure, and the extensor digitorum longus (EDL) were rapidly excised.
Skinned rat fibers were prepared and bathed in a resting physiological solution containing 100 nM Ca^2+, 1 mM Mg^2+, 36 mM Na^+, 126 mM K^+, 1 mM EGTA, 90 mM HEPES, […], 10 mM creatine phosphate and 8 mM ATP (pH 7.4). The Ca^2+ sensitive dye rhod-2 was used to track cytosolic Ca^2+ transients when exposed to electrical stimulation. […]

[2] = target: RyR1 (Sus scrofa, UniProt P16960); experiment: FLT-FRET between D-FKBP and A-CaM bound to RyR1 in skeletal SR membranes (HTS and dose-response); format: binding, porcine; parameters: RyR1 in skeletal SR membranes, and RyR2 in cardiac SR membranes; from tissue; host or cells: porcine longissimus dorsi muscle (heavy SR vesicles); details: 30 nM Ca2+; for Effect on FRET: RyR1 samples, micromolar compound, GSSG or GSH
Protocol: To confer compatibility with current HTS standards in industrial drug discovery facilities, we miniaturized our screening format from the previously established 384-well plates, requiring 50 μL sample per well[19], to 1536-well plates, requiring 5 μL sample per well. The complete 1280-compound library of pharmacologically active compounds (LOPAC) was applied as 5 nL/well in 40 columns of one 1536-well black-wall/black-bottom plate, with the remaining 8 columns loaded with 5 nL/well of DMSO, as no-drug controls. For each run of the screen, three plates were loaded with either (1) unlabeled HSR, or (2) HSR pre-incubated with donor-FKBP (D-FKBP; donor-only sample), or (3) donor-only sample that was additionally incubated with 0.3 μM acceptor-CaM (A-CaM) for 60 min prior to loading on the plate (donor-acceptor sample). This sub-saturating concentration of A-CaM was used to provide a readout that is sensitive to library compounds that may increase or decrease CaM binding affinity to RyR. To promote a homogenous population of RyR1 resembling that associated with myopathies, final assay conditions also included 30 nM Ca^2+ to represent resting (muscle relaxing) Ca^2+, and 5 mM oxidized glutathione (GSSG), which exaggerates the conditions associated with oxidative stress.
We acquired both FLT waveforms and fluorescence spectra, as previously described[19],[33],[34]. As previously observed, Hit effects were greatest following a 2-hour incubation with the library compounds (Supplementary Fig. 1a). As a result, all FRET results shown in Figs. 1 and 2, and Supplementary Fig. 2 are reported from the 2-hour incubation.
Necessary counter-screens to our pathological RyR1 conditions include evaluating compound effects in healthy conditions and on the cardiac isoform, RyR2. Using the same FRET assay as in HTS, we tested the dose response of key Hits from this screen and the previously HTS-identified RyR1 inhibitor, chloroxine, on healthy (5 mM GSH) and pathological (5 mM GSSG) conditions for both RyR1 in skeletal SR membranes, and RyR2 in cardiac SR membranes.
Skeletal HSR and cardiac CSR (0.4 mg/ml) membranes were independently pre-incubated with 60 nM D-FKBP, for 90 min, at 37 °C, in a solution containing 150 mM KCl, 5 mM GSH, 0.1 mg/mL BSA, 1 µg/mL Aprotinin/Leupeptin, 1 mM DTT and 20 mM PIPES (pH 7.0). To remove unbound D-FKBP, the SR membranes were spun down at 110,000 × g for 20 min, and then resuspended to 1 mg/mL (skeletal HSR) and 2 mg/mL (cardiac CSR) in binding buffer consisting of 150 mM KCl, 5 mM GSSG, 0.1 mg/mL BSA, 1μg/mL Aprotinin/Leupeptin and 20 mM PIPES, pH 7.0. These samples were then incubated with indicated [A-CaM] for 30 min at 22 °C in binding buffer containing 0.065 mM CaCl2 to give 30 nM free Ca^2+ in the presence of 1 mM EGTA (calculated by MaxChelator). This labeled SR sample was applied to the assay plates in 5 μL aliquots using a Multidrop™ Combi reagent dispenser (Thermo Scientific) with a standard-tube. An additional set of the assay plates were loaded with skeletal HSR or cardiac CSR labeled with only D-FKBP (no added A-CaM).
FLT measurements were conducted in a top-read FLT-PR designed and built by Fluorescence Innovations, Inc[33]. AF488 donor fluorescence was excited with a 473-nm microchip laser from Concepts Research Corporation (Belgium, WI), and emission was acquired with 490-nm long-pass and 517/20-nm band-pass filters (Semrock, Rochester, NY).
FLT waveforms for each well were fit based on a one-exponential decay function using least-squares minimization global-analysis software (Fluorescence Innovations, Inc.), as previously described[19],[33]. FRET efficiency (E) was determined as the fractional decrease of donor FLT (τD), due to the presence of acceptor fluorophore (τDA), using the following equation:1 E=1−τDA/τD, […]

Chain of RyR1 (P16960 whole entry): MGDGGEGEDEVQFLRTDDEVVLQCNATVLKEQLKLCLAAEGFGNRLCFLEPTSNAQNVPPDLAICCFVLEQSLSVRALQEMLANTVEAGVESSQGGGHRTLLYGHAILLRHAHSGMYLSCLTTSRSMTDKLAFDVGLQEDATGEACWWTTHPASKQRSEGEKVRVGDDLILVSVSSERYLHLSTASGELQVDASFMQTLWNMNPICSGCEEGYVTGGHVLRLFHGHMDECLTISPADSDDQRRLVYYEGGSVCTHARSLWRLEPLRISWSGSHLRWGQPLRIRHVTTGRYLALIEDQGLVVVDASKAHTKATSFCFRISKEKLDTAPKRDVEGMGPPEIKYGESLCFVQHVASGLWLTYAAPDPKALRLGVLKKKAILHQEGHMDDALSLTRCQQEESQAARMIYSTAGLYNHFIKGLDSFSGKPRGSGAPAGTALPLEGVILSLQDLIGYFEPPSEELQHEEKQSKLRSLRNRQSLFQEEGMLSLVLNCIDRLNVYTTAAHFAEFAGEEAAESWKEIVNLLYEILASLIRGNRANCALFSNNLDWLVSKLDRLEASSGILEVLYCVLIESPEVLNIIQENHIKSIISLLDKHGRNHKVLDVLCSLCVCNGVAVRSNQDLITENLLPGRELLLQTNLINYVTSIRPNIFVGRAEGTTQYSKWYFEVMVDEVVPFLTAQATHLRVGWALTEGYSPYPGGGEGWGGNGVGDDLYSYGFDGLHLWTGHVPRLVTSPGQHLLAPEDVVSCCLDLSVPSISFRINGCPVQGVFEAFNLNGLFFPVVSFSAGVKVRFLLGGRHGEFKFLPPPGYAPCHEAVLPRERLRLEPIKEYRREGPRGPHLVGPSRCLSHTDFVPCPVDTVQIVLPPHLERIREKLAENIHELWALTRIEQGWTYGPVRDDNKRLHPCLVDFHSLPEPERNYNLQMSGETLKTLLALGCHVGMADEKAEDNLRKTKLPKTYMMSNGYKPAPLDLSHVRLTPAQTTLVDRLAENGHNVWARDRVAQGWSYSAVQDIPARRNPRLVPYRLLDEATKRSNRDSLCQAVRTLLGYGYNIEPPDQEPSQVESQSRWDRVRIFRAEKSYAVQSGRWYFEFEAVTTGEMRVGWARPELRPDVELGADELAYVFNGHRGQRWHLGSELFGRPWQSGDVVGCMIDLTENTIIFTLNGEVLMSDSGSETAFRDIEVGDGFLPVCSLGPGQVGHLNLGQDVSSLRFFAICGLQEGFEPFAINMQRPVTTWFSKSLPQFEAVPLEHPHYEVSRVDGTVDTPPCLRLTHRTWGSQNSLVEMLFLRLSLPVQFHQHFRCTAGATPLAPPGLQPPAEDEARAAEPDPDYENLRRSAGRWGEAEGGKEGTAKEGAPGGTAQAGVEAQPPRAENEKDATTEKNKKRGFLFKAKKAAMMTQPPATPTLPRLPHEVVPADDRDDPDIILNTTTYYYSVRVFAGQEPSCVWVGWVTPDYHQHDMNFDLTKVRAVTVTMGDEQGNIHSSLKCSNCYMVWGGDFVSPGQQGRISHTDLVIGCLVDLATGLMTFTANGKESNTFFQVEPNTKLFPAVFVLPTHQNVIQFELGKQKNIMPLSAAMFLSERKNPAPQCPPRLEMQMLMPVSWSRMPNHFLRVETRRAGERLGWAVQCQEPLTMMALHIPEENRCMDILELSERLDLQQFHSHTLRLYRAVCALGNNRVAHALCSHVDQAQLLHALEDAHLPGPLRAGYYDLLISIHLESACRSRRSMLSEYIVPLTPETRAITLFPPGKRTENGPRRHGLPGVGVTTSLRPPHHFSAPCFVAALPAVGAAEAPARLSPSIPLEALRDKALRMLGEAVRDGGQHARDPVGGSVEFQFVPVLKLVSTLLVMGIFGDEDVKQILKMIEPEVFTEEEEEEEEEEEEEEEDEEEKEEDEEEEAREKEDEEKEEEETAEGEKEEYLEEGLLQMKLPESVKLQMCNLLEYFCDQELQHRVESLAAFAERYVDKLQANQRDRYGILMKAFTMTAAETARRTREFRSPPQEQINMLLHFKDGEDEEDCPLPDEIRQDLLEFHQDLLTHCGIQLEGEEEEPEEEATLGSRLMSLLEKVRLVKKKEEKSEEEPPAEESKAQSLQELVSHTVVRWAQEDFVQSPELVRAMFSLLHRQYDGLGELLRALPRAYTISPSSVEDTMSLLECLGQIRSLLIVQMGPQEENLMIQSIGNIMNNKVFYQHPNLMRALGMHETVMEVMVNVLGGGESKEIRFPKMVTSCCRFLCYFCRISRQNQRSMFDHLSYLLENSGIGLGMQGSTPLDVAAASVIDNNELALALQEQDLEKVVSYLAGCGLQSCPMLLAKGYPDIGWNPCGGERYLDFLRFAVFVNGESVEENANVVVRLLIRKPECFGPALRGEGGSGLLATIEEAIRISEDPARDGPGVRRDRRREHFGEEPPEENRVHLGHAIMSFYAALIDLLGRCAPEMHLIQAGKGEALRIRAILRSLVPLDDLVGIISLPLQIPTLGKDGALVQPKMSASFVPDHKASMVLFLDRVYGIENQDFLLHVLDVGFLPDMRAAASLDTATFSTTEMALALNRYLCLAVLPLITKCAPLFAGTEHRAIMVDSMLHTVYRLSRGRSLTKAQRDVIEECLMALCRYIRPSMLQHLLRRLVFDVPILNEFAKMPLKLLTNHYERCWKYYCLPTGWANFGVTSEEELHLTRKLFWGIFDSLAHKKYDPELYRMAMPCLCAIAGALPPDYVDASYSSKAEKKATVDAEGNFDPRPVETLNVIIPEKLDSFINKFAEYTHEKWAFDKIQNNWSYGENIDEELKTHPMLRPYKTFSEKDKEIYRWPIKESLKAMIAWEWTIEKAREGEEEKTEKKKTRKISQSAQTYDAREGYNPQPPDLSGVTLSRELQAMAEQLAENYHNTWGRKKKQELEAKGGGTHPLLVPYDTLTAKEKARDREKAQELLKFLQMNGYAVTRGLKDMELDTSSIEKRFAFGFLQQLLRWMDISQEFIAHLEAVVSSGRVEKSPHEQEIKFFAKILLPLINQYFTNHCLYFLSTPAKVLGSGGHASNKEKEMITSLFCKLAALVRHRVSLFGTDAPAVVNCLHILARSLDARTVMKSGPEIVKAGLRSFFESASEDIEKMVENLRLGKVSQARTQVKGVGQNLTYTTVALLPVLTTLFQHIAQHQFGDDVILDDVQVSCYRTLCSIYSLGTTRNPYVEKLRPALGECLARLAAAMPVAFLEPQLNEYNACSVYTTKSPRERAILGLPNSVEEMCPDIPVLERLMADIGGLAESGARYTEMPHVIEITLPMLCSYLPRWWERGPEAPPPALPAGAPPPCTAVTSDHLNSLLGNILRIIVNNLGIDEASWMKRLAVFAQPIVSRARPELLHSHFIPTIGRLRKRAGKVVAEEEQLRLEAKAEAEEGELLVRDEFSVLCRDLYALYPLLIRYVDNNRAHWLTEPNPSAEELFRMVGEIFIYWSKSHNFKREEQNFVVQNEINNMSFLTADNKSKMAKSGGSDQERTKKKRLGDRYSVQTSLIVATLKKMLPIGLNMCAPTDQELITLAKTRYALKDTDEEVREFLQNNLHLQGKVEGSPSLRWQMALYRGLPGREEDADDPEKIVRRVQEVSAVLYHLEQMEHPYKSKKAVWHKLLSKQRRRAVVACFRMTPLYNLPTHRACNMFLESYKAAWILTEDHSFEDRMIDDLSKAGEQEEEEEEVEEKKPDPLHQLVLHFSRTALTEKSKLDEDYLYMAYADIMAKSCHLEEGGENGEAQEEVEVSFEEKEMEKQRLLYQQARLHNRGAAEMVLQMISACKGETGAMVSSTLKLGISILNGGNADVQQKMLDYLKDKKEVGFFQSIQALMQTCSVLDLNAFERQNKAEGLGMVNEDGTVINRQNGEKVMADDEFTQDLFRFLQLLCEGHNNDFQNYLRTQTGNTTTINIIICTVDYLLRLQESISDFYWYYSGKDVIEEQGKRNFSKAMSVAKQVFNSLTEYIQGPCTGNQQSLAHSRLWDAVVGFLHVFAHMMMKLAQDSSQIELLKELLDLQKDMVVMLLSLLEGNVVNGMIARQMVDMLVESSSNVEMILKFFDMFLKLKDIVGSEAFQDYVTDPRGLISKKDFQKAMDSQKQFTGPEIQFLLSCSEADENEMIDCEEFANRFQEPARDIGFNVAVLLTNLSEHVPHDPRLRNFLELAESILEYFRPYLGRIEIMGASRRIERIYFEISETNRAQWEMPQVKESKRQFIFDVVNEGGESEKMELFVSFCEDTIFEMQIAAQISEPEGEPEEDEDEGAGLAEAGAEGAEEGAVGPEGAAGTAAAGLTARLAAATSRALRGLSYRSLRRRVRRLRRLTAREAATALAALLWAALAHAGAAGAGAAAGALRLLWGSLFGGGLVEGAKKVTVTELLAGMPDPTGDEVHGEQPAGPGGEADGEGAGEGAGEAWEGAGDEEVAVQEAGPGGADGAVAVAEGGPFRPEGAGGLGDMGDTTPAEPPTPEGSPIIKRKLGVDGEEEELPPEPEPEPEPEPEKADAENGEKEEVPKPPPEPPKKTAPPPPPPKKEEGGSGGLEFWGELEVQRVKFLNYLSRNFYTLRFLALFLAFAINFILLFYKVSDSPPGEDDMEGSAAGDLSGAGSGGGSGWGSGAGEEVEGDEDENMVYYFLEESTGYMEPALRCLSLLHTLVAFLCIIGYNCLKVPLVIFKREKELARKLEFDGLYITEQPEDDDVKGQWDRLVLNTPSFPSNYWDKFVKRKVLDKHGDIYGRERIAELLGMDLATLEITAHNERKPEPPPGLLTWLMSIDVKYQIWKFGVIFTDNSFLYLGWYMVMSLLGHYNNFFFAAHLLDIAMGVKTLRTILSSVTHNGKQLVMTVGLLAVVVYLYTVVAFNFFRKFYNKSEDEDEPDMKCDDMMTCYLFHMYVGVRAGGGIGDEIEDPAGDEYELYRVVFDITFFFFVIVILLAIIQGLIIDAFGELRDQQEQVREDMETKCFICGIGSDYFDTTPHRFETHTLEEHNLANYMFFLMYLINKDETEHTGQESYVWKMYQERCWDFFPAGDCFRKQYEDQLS

SMILES: Oc1c(Cl)cc(Cl)c2cccnc12 [chloroxine]
- Reduction of Ca2+ transient peak amplitude ([1]; 100 μM compound): 14%
- Effect on FRET [2]: increased

SMILES: O=c1c(O)c(-c2cc(O)c(O)c(O)c2)oc2cc(O)cc(O)c12 [myricetin]
- Reduction of Ca2+ transient peak amplitude ([1]; 1 μM compound): 12%
- Reduction of Ca2+ transient peak amplitude ([1]; 10 μM compound): 48%
- Hit in primary FLT-FRET HTS of LOPAC (FRET altered by > 4 SD vs DMSO) ([2]; 10 μM compound, 2-hour incubation, 5 mM GSSG, 0.3 μM A-CaM, 1536-well): identified; also recorded: increased the FRET efficiency readout
- Effect on FRET [2]: increases FRET

Source: PMC7000700, “RyR1-targeted drug discovery pipeline integrating FRET-based high-throughput screening and human myofiber dynamic Ca^2+ assays” (Scientific Reports, 2020)
